Assay results as given in patent publication US20190175557A1, “COMPOUNDS USEFUL FOR DECREASING INTERFERON LEVEL” (priority 2016, published 2019).
Where two headings read alike, the source gives them in different places.

What was measured:
[1] = system: HIV-stimulated pDC; assay: Activation markers and cytokine mRNA in HIV-stimulated pDC (RT-qPCR, flow cytometry); type: cell-based, human
[2] = system: HIV-stimulated pDC; assay: IFN-α / type I IFN production by HIV-stimulated purified pDC (ELISA); type: cell-based, human
[3] = system: pDC; assay: Cytotoxicity of compounds on cultured pDC
[4] = system: HIV-stimulated pDC; assay: TRAIL relocalization to the membrane of HIV-stimulated pDC (3D microscopy); type: cell-based, human
Protocol: (§1) Cells were then incubated with anti-CXCR4 antibody (Biolegend, San Diego, Calif.) in saturation buffer PBS-BSA 0.5% for membrane staining or in permeabilizing buffer containing 1% saponin with monoclonal antibody anti-TRAIL (Biolegend, San Diego, Calif., USA). […] Nucleus was stained using DAPI (Molecular Probes, Paisley, UK). Slides were mounted with Fluoromount-G (eBioscience, CA, USA) and scanned with a Nikon Eclipse 90i Upright microscope (Nikon Instruments Europe, Badhoevedorp, The Netherlands) using a 100× Plan Apo VC piezo objective (NA 1.4) and Chroma bloc filters (ET-DAPI, ET-GFP) and were subsequently deconvoluted with a Meinel algorithm and 8 iterations and analyzed using Metamorph® (MDS Analytical Technologies, Winnersh, UK). TRAIL/DAPI/Overlay/Confocal plane: Representative 2D focal plan. Overlay with bright: Bright. Reconvolution overlays: 2D projections of the maximum intensity pixels along the Z-axis.
7 pictures were taken from each slide for each Z section framing the nucleus. Quantification of the colocalization in the cytoplasm of purified pDC using Mander's Coefficient was obtained after analyze by JACoP pluging in ImageJ.

[5] = biological target: T1, CXCR4 (Homo sapiens, UniProt P61073); assay: CXCR4 internalization and co-localization in pDC (microscopy); type: cell-based; conditions: confocal microscopy
T1 sequence (P61073 whole entry): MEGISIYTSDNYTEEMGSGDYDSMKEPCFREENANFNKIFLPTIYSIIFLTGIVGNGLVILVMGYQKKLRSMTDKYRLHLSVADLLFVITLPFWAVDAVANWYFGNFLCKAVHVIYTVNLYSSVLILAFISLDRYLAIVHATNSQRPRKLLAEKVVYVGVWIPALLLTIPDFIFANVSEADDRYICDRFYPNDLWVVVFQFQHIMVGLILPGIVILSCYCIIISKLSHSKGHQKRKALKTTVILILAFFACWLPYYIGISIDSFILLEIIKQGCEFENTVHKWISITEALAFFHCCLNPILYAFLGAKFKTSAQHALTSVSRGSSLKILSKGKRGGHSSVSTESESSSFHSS
Protocol: as §1, with “Reconvolution overlays: 2D projections of the maximum intensity pixels along the Z-axis.” left out
In other cases, cells were cultured overnight in media alone then were washed in ice-cold PBS-BSA 0.2% and stained with CXCR4 antibody (R&D Systems) for 1 hour at 4° C. […] Data are expressed as the mean percentage ±SEM mean channel fluorescence intensity (MFI) values for residual surface expression and intracellular staining. […]
7 pictures were taken from each slide for each Z section framing the nucleus. Quantification of the colocalization in the cytoplasm of purified pDC using Mander's Coefficient was obtained after analyze by JACoP pluging in ImageJ. […]

[6] = biological target: T1, CXCR4; conditions: Jurkat cells, 1 mM, 4° C. for 30 min
[7] = system: 129S8 mice infected with Influenza A virus strain X31 (H3N2); conditions: mouse, in vivo
[8] = system: human primary PBMC
[9] = biological target: H4R (Homo sapiens, UniProt Q9H3N8); type: cell-based; conditions: H4R siRNA, human primary pDC
Chain of H4R (Q9H3N8 whole entry): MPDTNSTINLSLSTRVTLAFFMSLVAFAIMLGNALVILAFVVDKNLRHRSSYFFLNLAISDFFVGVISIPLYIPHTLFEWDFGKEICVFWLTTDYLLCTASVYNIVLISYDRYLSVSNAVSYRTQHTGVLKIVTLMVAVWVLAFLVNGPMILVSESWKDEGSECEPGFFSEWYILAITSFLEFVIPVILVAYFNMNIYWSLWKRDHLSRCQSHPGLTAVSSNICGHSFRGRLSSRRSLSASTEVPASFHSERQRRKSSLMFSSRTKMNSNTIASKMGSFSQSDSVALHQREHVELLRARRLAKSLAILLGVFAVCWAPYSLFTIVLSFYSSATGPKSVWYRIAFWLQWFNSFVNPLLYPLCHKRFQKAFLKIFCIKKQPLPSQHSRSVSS

[10] = system: human Flu-activated primary PBMC; assay: cells; type: cell-based
[11] = biological target: T1, CXCR4
[12] = system: flu-exposed human PBMC; type: cell-based
[13] = in vitro
[14] = system: HIV or LPS stimulated monocytes; assay: IFN-γ mRNA in monocytes stimulated with HIV or LPS (RT-qPCR); type: cell-based; conditions: RT-qPCR normalized to RPL13A
Protocol: Data shown are representative of two independent experiments.
Monocytes were pre-incubated with clobenpropit (CB), IT1t or chloroquine before being activated by HIV and LPS. IFN-γ levels were measured by RT-qPCR and normalized to RPL13A mRNA expression.

[15] = system: pristane-induced SLE in Balb/c mice; assay: Pristane-induced systemic lupus erythematosus (SLE) model in Balb/c mice; type: in vivo, mouse; conditions: 3, 10, 30 mg/kg IP QD
Protocol: Receive and quarantine (SOP 560) 70 female Balb/C (20-25 g) mice and house in filter-topped cages supplied with autoclaved bedding.
The animals are weighed, ear tagged for individual identification and randomly assigned to 8 treatment groups of 8 animals each and two groups of 3 animals (for pre-tolerance at 30 mg/kg of survival).
The test items compounds clobenpropit (CB) and IT1t are stored at 4° C.
Mouse weights are recorded twice a week, and daily observations for clinical signs.
Collected sera are stored at −80° C. for measurements of autoantibody on weeks 4, 8 and 10. (Predose will kept at −80° C. for potential use). Anti-dsDNA level is a standard screening readout for identifying efficacy of test compounds in a SLE model.
Measurements: weeks 4, 8, 10: (1) autoantibody (anti-dsDNA), collagen and cytokines TNFα, IL-6 and TRAIL by ELISA and (2) ANA antibody by IFA.

[16] = system: NK cells activated by K562 cells; assay: IFN-γ, TNF-α and CD107a expression by NK cells activated by K562 cells (flow cytometry); type: cell-based; conditions: treated 1 hour, then activated by K562 cells
[17] = system: collagen-induced arthritis in DBA1/J mice; assay: Therapeutic collagen-induced arthritis model in DBA1/J mice; type: in vivo, mouse; conditions: for inhibition of disease severity: Day 28-42, at termination (Day 42); for average AI (Arthritic Index): maximum AI=16
Protocol: 80 DBA1/J mice (male, 7-8 weeks) was received and placed in quarantine for 3 days with daily inspections. Ear tag mice for individual identification.
Individual mouse weights were recorded. Hind paw thickness were recorded by digital caliper. 80 mice subcutaneous were injected with collagen/CFA emulsion (0.05 ml/mouse; 100 μg/mouse collagens in CFA) using a 1 ml syringe fitted with a 25G needle. Mice returned to cages.
80 mice were boosted with collagen/ICFA emulsion. Then their individual weights were recorded.
Mice were scored for signs of arthritis:
7) Calculate Arthritic Index (AI) by addition of individual paw scores and record.
Mice with an AI score within a range of 2-6 were selected for assignment to groups for therapeutic dosing as in Table 4.
Begin intraperitoneal (IP) dosing once daily (QD) according to Table 4.
The compounds clobenpropit (CB) and IT1t were tested. CB and IT1t were stored at 4° C. […] These compounds were doses 7 days per week (Saturday and Sunday included) daily for 14 days.
Mice were weighed, scored for signs or arthritis, and hind paw thickness is measured by digital caliper three-times weekly (Monday, Wednesday and Friday). Any adverse reactions to treatment were recorded.
Termination: AI score were recorded for each limb. The paw thickness of the hind limbs is measured with digital caliper. Mice were anesthetized and exsanguinated into pre-chilled EDTA-tubes.
2) Plasma was assayed by ELISA for IL-1β, IL-6, TRAIL. Then, all limbs were collected.

[18] = Solubility of test compounds
[19] = 3 mg/kg IP once daily, at termination (Day 42)
[20] = 10 mg/kg IP once daily, at termination
[21] = 30 mg/kg IP once daily, at termination

## c1cc(CN2CCCNCCNCCCNCC2)ccc1CN1CCCNCCNCCCNCC1 [AMD3100]
[1]
  type I IFN and TRAIL expression by HIV-activated pDC, compound alone: did not block
[1]; pre-incubation 1 hour (20 μM) before histamine or CB
  effect on biological activities of histamine and CB on HIV activated-pDC: drastically abolished

## NCCc1cc(=O)oc2c3c4c(cc12)CCCN4CCC3 [FFN-511, FFN511]
[2]; 50 μM
  IFN type I production by HIV-stimulated pDC: strongly reduced
[3]; 50 μM
  cytotoxic effect on pDC: without any obvious cytotoxic effect
[4]
  TRAIL localization to the cell membrane in HIV-stimulated pDC: significantly inhibited
[1]; HIV-1-stimulated pDC, RT-qPCR
  iNOS or IL-15 gene expression: neither CB nor FFN-511 affected
[1]; RT-qPCR profiling, normalized to RPL13A
  transcription of virus-induced genes (TRAIL, IFNs, IL6, IL8, IL10, CXCL10, ISG56) induced in pDC by HIV-1: dramatically inhibited
[5]
  co-localization with CXCR4 in pDC: strong degree of co-localization

## NCCc1c[nH]cn1 [Histamine]
[6]
  binding of the CXCR4 antibody 12G5 on T cells: inhibited
[2]; purified pDC, 10 μM
  inhibitory effect on pDC activation / IFN-α production by HIV-1: active
[7]
  IFN-α, IFN-β and IFN-λ2/3 protein production in bronchioalveolar lavage (BAL) fluid: a trend towards IFN reduction that was not statistically significant
[8]
  Therapeutic index (Ratio TC50/EC50): <1500
[8]; human
  TC50: <2000 µM
[9]
  effect of H4R knock down on inhibitory activity on IFN-α, IFN-β and TRAIL productions by HIV-stimulated pDC: did not block
[10]
  EC50: 1.4 ± 1 µM
[3]; 10 μM
  cytotoxicity on purified pDC: without obvious toxicity
[11]; pDC stimulated by CXCR4-tropic HIV-1
  effect of CXCR4 gene silencing on the inhibitory effect on type I IFN and TRAIL: suppressed
[12]
  IFN-α/β and IFN-λ2/3 mRNA levels: significantly reduced

## CC1(C)CN2C(CS/C(=N\C3CCCCC3)NC3CCCCC3)=CSC2=N1 [IT1t]
[13]; human
  CC50: 238 ± 21 µM
[8]
  Therapeutic index (Ratio TC50/EC50): 33.5
[14]
  IFN-γ expression by HIV or LPS stimulated monocytes: inhibit
[10]; read-out: EC50
  EC50: 7.1 ± 1 µM
[3]
  toxicity at the efficient concentrations: not toxic
[3]; diluted in DMSO
  toxicity at higher concentrations: some toxicity
[11]; pDC stimulated with HIV X4 or HIV R5, active with control siRNA
  type I IFN reduction in CXCR4 siRNA-treated cells: lost its biological activity
[15]
  symptoms of pristane-Induced Systemic Lupus Erythematosus: reduce symptoms
[15]; compared to group 1 (vehicle)
  ds-DNA level: inhibition
[16]
  IFN-γ, TNF-α and CD107a expression by NK cells: decrease
[1]
  effect on cytokine production of activated pDC compared with CB: stronger effect
[1]; 1 hour pre-culture, HIV X4
  IFN-α, IFN-β and TRAIL expression by HIV-stimulated pDC: inhibited
[17]; 3 mg/kg IP once daily
  reduction in terminal plasma concentration of IL-1β: 49%
  reduction in terminal plasma concentration of TRAIL: 62%
  inhibition of disease severity: no amelioratory effect
[17]; [19]
  average AI (Arthritic Index): 13.1
[17]; 10 mg/kg IP once daily
  reduction in terminal plasma concentration of IL-1β: 53%
  reduction in terminal plasma concentration of IL-6: 30%
  reduction in terminal plasma concentration of TRAIL: 46%
[17]; [20]
  reduction in disease severity: 40%
  average AI (Arthritic Index): 7.9
[17]; 30 mg/kg IP once daily
  reduction in terminal plasma concentration of IL-1β: 69%
  reduction in terminal plasma concentration of IL-6: 66%
  reduction in terminal plasma concentration of TRAIL: 51%
[17]; [21]
  reduction in disease severity: 63%
  average AI (Arthritic Index): 4.9
[17]; 3, 10 and 30 mg/kg daily intraperitoneal injection
  disease progression over the dose range: dose-dependent inhibition
[18]; PBS, aqueous buffer
  solubility: > 50 mg/mL
[18]; water
  solubility: > 50 mg/mL

## NCCc1c[nH]c2ccc(O)cc12 [Serotonin, serotonin]
[13]
  CC50: 1500 ± 54 µM

## CCN(CC)CCCC(C)Nc1ccnc2cc(Cl)ccc12 (stereo not drawn) [chloroquine]
[14]
  IFN-γ expression by HIV or LPS stimulated monocytes: inhibit

## C[C@]12C=CC(=O)C=C1CC[C@@H]1[C@@H]2[C@@H](O)C[C@@]2(C)[C@H]1CC[C@]2(O)C(=O)CO [prednisolone]
[17]; 3 mg/kg IP once daily
  reduction in terminal plasma concentration of IL-1β: 62%
  reduction in terminal plasma concentration of IL-6: 79%
  reduction in terminal plasma concentration of TRAIL: 72%
  inhibition of disease severity: 82%
[17]; [19]
  average AI (Arthritic Index): 2.4

## NCCCNCCCCNCCCN [spermin, spermine]
[16]
  IFN-γ, TNF-α and CD107a expression by NK cells: decrease

## CXCL12: CXCR4 natural ligand
[1]; 62.5 nM, pre-incubation 15 min, 30 min, 60 min
  IFN-α/β mRNA expressions by HIV stimulated pDC: did not reduce
[1]; 10 μM
  type I IFN mRNA expression by HIV stimulated pDC: did not inhibit
